The text below walks through data of ChEMBL document CHEMBL5649166, “RIP3 induces apoptosis independent of pronecrotic kinase activity” (Mol Cell, 2014).

For experiment [1], the target named is Mitogen-activated protein kinase 11 (Homo sapiens) (UniProt Q15759). Kind of experiment: Inhibition of human P38b/MAPK11 using myelin basic protein as substrate at 1 uM in presence of 32P-ATP by Hotspot assay relative to control; values are per cent of control.
The target in experiment [2] is Tyrosine-protein kinase JAK1 (Homo sapiens) (UniProt P23458). Nature of the experiment: Inhibition of human JAK1 using poly[Glu:Tyr] (4:1) as substrate at 1 uM in presence of 32P-ATP by Hotspot assay relative to control; values are per cent of control.
Sequence of Tyrosine-protein kinase JAK1 (Homo sapiens) (P23458 whole entry): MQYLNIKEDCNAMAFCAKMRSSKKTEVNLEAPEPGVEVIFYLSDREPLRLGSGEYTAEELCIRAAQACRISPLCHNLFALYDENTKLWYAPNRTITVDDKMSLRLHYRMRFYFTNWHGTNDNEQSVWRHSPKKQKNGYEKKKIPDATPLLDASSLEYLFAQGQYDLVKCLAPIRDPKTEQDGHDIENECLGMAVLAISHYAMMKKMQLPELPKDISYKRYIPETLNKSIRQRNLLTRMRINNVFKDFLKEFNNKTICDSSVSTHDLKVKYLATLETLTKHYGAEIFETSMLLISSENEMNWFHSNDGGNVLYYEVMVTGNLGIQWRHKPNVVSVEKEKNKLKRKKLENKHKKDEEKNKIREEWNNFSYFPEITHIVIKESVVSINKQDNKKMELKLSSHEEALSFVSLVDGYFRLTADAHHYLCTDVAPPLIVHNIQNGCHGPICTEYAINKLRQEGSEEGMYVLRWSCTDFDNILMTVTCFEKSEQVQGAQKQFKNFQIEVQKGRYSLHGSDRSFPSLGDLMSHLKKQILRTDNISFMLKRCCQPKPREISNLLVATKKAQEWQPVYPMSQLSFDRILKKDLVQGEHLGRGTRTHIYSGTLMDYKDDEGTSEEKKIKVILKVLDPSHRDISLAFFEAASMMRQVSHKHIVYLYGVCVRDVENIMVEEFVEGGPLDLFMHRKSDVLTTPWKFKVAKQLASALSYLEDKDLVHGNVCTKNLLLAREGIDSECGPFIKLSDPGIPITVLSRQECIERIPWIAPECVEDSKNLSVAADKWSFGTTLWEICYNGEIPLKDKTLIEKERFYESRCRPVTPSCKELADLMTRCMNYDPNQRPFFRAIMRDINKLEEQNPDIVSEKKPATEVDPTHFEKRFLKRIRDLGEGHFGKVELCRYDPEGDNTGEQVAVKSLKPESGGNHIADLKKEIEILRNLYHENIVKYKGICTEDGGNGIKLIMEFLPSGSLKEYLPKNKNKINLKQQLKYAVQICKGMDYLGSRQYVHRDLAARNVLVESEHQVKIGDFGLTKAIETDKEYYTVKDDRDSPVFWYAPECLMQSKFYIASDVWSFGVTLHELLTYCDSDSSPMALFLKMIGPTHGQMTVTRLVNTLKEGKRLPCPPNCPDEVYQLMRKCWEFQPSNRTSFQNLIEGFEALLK
The target of experiment [3] is Serine/threonine-protein kinase PAK 3 (Homo sapiens) (UniProt O75914). Nature of the experiment: Inhibition of human PAK3 using RRRLSFAEPG as substrate at 1 uM in presence of 32P-ATP by Hotspot assay relative to control; values are per cent of control.
Sequence of Serine/threonine-protein kinase PAK 3 (Homo sapiens) (O75914 whole entry, looked up): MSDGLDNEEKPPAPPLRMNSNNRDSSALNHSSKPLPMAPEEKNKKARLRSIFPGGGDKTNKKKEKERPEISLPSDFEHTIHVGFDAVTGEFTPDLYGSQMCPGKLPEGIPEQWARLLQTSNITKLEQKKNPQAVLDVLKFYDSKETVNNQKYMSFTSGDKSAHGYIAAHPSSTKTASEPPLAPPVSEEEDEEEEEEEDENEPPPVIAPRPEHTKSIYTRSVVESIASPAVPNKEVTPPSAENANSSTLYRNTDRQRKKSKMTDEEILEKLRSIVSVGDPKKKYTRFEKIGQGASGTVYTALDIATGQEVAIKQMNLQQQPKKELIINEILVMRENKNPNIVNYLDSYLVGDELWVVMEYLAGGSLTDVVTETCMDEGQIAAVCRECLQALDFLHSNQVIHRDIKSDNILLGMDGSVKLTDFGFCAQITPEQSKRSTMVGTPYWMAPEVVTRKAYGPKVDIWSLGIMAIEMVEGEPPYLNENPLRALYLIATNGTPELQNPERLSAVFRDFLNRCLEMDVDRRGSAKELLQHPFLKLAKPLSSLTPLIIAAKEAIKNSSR
For experiment [4], the target named is Tyrosine-protein kinase Lyn (Homo sapiens) (UniProt P07948). Kind of experiment: Inhibition of human LYN B using poly[Glu:Tyr] (4:1) as substrate at 1 uM in presence of 32P-ATP by Hotspot assay relative to control; values are per cent of control.
Sequence of Tyrosine-protein kinase Lyn (Homo sapiens) (P07948 2-512 limits assumed): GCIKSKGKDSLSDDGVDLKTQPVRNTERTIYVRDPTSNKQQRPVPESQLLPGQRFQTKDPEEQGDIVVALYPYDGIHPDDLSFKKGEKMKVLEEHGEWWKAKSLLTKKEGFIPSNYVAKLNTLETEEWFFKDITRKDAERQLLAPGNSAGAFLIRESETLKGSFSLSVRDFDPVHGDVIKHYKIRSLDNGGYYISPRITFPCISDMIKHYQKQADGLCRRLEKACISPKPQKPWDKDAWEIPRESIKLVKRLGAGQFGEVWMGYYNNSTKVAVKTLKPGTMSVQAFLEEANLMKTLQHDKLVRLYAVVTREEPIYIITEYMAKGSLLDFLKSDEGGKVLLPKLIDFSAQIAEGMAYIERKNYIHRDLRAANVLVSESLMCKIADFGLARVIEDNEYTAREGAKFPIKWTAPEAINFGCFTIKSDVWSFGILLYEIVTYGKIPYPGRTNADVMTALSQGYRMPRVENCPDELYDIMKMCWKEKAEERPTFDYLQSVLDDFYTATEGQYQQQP
The target in experiment [5] is Dual specificity protein kinase CLK2 (Homo sapiens) (UniProt P49760). Nature of the experiment: Inhibition of human CLK2 using myelin basic protein as substrate at 1 uM in presence of 32P-ATP by Hotspot assay relative to control; values are per cent of control.
Sequence of Dual specificity protein kinase CLK2 (Homo sapiens) (P49760 whole entry, looked up): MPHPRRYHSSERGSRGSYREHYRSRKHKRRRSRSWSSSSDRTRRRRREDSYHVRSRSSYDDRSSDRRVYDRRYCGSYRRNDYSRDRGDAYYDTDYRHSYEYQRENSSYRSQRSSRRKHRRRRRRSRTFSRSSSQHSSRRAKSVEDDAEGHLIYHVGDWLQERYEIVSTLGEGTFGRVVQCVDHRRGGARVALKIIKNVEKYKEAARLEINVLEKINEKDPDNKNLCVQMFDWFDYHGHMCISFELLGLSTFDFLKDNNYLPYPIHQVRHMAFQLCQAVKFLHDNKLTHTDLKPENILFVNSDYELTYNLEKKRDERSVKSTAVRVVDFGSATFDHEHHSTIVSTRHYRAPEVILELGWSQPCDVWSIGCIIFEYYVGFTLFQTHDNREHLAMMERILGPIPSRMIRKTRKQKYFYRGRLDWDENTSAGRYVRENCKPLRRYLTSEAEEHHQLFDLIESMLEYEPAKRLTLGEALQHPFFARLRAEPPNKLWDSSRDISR
In experiment [6] the target is T1, Ephrin type-B receptor 1 (Homo sapiens) (UniProt P54762).
T1 sequence (whole entry): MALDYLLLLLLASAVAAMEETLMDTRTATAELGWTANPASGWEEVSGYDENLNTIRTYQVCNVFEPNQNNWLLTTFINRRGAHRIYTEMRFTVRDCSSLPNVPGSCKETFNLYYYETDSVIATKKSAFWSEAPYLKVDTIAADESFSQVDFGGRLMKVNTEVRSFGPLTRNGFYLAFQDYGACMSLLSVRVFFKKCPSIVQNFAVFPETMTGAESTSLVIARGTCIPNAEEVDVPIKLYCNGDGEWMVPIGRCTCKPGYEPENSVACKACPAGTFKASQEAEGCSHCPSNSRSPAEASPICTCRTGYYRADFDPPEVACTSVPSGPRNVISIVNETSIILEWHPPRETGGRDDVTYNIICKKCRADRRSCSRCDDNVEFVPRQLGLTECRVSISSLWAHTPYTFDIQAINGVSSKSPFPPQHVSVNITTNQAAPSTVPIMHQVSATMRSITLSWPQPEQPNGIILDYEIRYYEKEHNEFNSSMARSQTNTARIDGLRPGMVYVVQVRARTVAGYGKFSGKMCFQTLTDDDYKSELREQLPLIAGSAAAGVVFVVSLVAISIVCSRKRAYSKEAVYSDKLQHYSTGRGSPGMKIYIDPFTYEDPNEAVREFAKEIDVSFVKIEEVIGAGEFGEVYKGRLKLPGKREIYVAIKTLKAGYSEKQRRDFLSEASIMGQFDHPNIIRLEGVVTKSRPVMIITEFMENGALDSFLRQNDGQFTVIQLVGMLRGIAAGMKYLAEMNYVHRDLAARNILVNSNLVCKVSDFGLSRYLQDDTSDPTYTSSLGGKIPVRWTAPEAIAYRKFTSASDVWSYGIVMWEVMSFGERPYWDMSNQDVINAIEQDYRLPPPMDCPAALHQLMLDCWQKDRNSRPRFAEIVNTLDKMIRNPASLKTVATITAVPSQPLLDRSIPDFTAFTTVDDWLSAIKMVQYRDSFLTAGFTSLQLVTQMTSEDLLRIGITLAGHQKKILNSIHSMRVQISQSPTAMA
Kind of experiment: Inhibition of human EPHB1 using poly[Glu:Tyr] (4:1) as substrate at 1 uM in presence of 32P-ATP by Hotspot assay relative to control; values are per cent of control.

The target in experiment [7] is Receptor-type tyrosine-protein kinase FLT3 (Homo sapiens) (UniProt P36888). Kind of experiment: Inhibition of human FLT3 using EAIYAAPFAKKK as substrate at 1 uM in presence of 32P-ATP by Hotspot assay relative to control; values are per cent of control.
Sequence of Receptor-type tyrosine-protein kinase FLT3 (Homo sapiens) (P36888 whole entry): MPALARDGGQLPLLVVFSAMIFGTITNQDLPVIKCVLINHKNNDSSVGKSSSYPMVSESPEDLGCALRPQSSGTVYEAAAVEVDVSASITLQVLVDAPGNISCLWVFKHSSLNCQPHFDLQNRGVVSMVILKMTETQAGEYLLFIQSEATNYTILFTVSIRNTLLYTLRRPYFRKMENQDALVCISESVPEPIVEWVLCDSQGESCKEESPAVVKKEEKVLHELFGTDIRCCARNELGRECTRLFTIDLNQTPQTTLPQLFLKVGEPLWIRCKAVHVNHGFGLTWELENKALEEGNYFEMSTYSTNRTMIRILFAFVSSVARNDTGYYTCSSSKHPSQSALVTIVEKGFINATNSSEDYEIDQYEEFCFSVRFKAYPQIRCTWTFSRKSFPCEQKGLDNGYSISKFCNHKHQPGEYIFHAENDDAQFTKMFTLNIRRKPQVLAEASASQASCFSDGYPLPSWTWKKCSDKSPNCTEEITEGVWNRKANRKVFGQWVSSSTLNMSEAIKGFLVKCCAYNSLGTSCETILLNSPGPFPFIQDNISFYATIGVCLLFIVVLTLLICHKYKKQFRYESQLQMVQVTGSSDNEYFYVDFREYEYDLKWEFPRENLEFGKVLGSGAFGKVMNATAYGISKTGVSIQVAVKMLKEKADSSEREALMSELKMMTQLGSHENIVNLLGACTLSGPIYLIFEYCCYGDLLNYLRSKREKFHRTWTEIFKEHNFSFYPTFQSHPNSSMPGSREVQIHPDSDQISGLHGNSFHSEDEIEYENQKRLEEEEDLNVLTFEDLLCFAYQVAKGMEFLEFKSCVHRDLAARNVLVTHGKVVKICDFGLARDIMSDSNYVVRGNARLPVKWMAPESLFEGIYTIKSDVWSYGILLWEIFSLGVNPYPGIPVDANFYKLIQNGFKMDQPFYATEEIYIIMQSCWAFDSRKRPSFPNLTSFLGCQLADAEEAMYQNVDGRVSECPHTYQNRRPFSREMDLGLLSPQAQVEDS
The target of experiment [8] is T2, Serine/threonine-protein kinase Chk1 (Homo sapiens) (UniProt O14757).
T2 sequence (whole entry): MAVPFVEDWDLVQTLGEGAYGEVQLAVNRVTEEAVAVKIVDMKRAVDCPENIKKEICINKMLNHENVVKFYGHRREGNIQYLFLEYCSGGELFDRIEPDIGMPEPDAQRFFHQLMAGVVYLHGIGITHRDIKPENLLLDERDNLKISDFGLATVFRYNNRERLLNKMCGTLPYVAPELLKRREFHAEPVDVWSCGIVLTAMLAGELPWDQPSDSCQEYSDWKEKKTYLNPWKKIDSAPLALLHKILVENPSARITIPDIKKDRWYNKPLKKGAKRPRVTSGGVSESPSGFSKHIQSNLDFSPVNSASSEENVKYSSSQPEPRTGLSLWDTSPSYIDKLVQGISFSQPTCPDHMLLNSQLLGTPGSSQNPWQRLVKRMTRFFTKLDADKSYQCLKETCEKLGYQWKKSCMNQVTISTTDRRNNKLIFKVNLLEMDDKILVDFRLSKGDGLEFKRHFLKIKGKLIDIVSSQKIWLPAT
Kind of experiment: Inhibition of human CHK1 using KKKVSRSGLYRSPSMPENLNRPR as substrate at 1 uM in presence of 32P-ATP by Hotspot assay relative to control; values are per cent of control.

Experiment [9] addresses Tyrosine-protein kinase Srms (Homo sapiens) (UniProt Q9H3Y6). Kind of experiment: Inhibition of human SRMS using poly[Glu:Tyr] (4:1) as substrate at 1 uM in presence of 32P-ATP by Hotspot assay relative to control; values are per cent of control.
The target in experiment [10] is Calcium/calmodulin-dependent protein kinase type II subunit beta (Homo sapiens) (UniProt Q13554). Kind of experiment: Residual activity of human CAMK2b using KKALRRQETVDAL as substrate at 1 uM in presence of 32P-ATP by Hotspot assay relative to control.
The target of experiment [11] is Ribosomal protein S6 kinase alpha-2 (Homo sapiens) (UniProt Q15349). Kind of experiment: Inhibition of human RSK3 using KKLNRTLSVA as substrate at 1 uM in presence of 32P-ATP by Hotspot assay relative to control; values are per cent of control.
For experiment [12], the target named is Cyclin-dependent kinase 2/cyclin E1 (Homo sapiens) (UniProt P24864+P24941). Kind of experiment: Inhibition of human CDK2/cyclin E using RB Protein as substrate at 1 uM in presence of 32P-ATP by Hotspot assay relative to control; values are per cent of control.

Sequence of Mitogen-activated protein kinase 11 (Homo sapiens) (Q15759 whole entry): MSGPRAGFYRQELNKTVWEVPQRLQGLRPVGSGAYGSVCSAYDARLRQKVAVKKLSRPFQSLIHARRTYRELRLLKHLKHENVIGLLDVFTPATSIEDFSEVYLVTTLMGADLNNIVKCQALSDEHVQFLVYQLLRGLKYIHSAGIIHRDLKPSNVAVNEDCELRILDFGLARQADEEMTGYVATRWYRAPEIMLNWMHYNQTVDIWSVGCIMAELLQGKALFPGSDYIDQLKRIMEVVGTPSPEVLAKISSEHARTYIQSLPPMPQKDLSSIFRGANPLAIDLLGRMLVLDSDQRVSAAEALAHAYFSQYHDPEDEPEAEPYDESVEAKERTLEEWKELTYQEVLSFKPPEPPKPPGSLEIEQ
Sequence of Tyrosine-protein kinase Srms (Homo sapiens) (Q9H3Y6 whole entry): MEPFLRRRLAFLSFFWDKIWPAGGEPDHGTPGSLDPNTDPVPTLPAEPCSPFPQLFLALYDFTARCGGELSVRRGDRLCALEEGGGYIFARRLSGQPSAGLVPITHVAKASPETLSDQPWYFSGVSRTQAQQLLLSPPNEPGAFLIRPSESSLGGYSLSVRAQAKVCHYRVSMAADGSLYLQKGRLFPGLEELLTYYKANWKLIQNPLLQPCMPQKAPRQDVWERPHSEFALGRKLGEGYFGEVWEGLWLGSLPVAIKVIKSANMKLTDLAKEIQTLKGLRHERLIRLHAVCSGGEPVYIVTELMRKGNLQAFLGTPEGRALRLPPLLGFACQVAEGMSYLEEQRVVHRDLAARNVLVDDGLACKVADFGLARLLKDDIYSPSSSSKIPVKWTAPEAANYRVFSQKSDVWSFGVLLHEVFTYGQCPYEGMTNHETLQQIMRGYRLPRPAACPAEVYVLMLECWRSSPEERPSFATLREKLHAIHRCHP

As to `CC(C)S(=O)(=O)c1ccc2nccc(Nc3ccc4scnc4c3)c2c1`, the residual activity worked out at 102% in [1]; 94.9% in experiment [2]; 97.8% in experiment [3]; 74.6% in experiment [4]; 97.1% in experiment [5]; 79% in [6]. For the same molecule, the residual activity in experiment [7] is 87.9%; in experiment [8], 100%; in [9], 77.1%; in experiment [10] it was 104%; in [11] it was 96%; in experiment [12], 87.7%.

As for `CNC(=O)c1ccc2c(c1)ncn2-c1ccc(CC(=O)OC(C)(C)C)cc1`, the residual activity in [1] came to 97.1%; in experiment [2] it was 98.2%; in [3] it was 105%; in [4], 89.2%; in experiment [5], 93.7%; in [6] it was 104%. The residual activity came to 16% in [7]; 84.6% in experiment [8]; 105% in experiment [9]; 98.3% in [10]; 97.1% in experiment [11]; 104% in [12].

For `Cc1cc(-c2cnc(N)c3c(-c4ccc5scnc5c4)csc23)n(C)n1`, the residual activity in [1] was determined as 37.8%; in experiment [2], 88.3%; in experiment [3], 96.6%; in experiment [4] it was 14%; in [5], 101%; in [6], 36.8%. The residual activity came to 48% in experiment [7]; 100% in experiment [8]; 78.8% in experiment [9]; 100% in experiment [10]; 103% in experiment [11]; 94.8% in [12].
